The target in one test is T1, PARP-1 (Homo sapiens, UniProt P09874).
T1 construct: purchased
Kind of test: PARP enzymatic assay (HT Universal Colorimetric PARP1 Assay Kit). The test is classed as biochemical. To be noted: read-out: PARP-1 enzymatic inhibition IC50. The procedure:
PARP Enzymatic Assay (Following the Manual of HT Universal Colorimetric PARP1 Assay Kit).
Histone proteins were coated on a 96-well plate and incubated overnight at 4° C. After be washed 3 times with 200 ul PBST solution, the plate was blocked with a blocking solution and incubated for 30 min at room temperature, and then washed with PBST solution 3 times. A compound to be tested was treated and added to the plate. Thereafter, 20 μl of diluted PARP1 (1 nM) or 20 μl of PARP2 (3 nM) solution was added into the reaction system and incubated for 1 or 2 hours. 50 ul of streptavidin-HRP mixture (1:50) was added into the plate and incubated for 30 min at room temperature. The plate was then washed with three times with PBST buffer. 100 μl of (HRP) (Chemiluminescent substrate A and substrate B (1:1)) was added into the plate, and the plate was immediately read on a microplate reader (Envision, PerkinElmer).

A further test relates to HCC1937 cells. Kind of test: Cellular PARylation assay. The test is classed as cell-based. Particulars: Homo sapiens; HCC1937 cells, compound 30 min then 1 mM H2O2 10 min; read-out: cellular PARylation EC50. The procedure:
Cellular PARylation Assay
HCC1937 cells were planted into 96 well plates at 4×10^4 cells/well and incubated at 37° C. in an incubator overnight. After being treated with a test compound for 30 min, cells were then treated with 1 mM H2O2 for 10 min. The cells were washed with 200 ul pre-chilled PBS twice and fixed with 100 ul pre-chilled methanol/acetone (7:3) on ice for 30 min. After being air-dried, the plates were blocked using PBS-Tween blocking solution (0.05%) with dissolved 5% nonfat dry milk for 30 min at room temperature. The cells were incubated with anti-PAR antibody 10H (1:100) at room temperature for 1 hour followed by washing with PBS-Tween20 for 3 times; and then added into a blocking solution including goat anti-mouse fluorescein isothiocyanate (FITC)-coupled secondary antibody and 1 μg/mL DAPI to incubate away from light at room temperature for 1 hour. After being washed with PBS-Tween20 for 3 times, the plate was analyzed with a fluorescence microplate counter (Flexstation III, Molecular Device).

Structures are written as SMILES.

T1 sequence (P09874 whole entry): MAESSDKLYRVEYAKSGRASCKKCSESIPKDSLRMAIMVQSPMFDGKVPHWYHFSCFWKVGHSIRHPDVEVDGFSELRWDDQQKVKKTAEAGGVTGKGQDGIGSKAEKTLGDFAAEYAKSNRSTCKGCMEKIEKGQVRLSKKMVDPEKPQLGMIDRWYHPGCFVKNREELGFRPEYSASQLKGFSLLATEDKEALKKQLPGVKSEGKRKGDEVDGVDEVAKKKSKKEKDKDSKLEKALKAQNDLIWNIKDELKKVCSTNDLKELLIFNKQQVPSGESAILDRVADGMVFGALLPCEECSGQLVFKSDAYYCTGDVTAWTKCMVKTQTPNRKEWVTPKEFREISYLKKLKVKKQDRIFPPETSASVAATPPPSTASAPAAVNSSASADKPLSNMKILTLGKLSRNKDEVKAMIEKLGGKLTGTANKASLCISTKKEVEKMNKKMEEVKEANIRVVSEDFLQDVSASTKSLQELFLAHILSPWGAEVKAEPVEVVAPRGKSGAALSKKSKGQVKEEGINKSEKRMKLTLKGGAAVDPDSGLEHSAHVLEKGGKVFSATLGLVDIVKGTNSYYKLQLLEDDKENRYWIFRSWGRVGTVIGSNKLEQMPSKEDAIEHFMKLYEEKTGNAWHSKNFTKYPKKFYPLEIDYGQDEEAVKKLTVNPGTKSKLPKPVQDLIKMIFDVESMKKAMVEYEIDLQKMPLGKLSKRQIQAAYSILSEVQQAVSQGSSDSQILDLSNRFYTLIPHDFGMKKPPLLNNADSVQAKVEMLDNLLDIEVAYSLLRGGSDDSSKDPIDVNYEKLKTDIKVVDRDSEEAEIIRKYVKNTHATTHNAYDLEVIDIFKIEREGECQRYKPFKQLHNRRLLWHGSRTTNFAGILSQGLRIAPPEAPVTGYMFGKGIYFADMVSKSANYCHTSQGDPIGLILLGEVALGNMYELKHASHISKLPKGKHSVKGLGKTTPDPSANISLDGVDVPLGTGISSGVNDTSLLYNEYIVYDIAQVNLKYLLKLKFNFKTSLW

One may read the IC50 as the concentration needed to halve the response being measured. As usually defined, the EC50 is the midpoint of the concentration-response curve. Take `Cc1ncc(CN2CCC(C)(c3cnn4c3[nH]c3cc(F)cc(C(N)=O)c34)CC2)n1C` [Example 85, 3-(1-((1,2-dimethyl-1H-imidazol-5-yl)methyl)-4-methylpiperidin-4-yl)-6-fluoro-4H-benzo[4,5]imidazo[1,2-b]pyrazole-8-carboxamide]: the IC50 at PARP-1 was 1 to 100 nM. Moreover, the EC50 in the test on HCC1937 cells was in the range of 1 to 100 nM.
Consider `CCN1CCC(C)(c2c(C)nn3c2[nH]c2cc(F)cc(C(N)=O)c23)CC1` [Example 112, 3-(1-ethyl-4-methylpiperidin-4-yl)-6-fluoro-2-methyl-4H-benzo[4,5]imidazo[1,2-b]pyrazole-8-carboxamide], for which the IC50 on PARP-1 was 1 to 100 nM. Further, the EC50 in the test on HCC1937 cells lay in the range of 1 to 100 nM.
On to `CC1(c2cnn3c2[nH]c2cc(F)cc(C(N)=O)c23)CCN(CCS(C)(=O)=O)C1` (stereo not drawn) [Example 98, 6-fluoro-3-(3-methyl-1-(2-(methylsulfonyl)ethyl)pyrrolidin-3-yl)-4H-benzo[4,5]imidazo[1,2-b]pyrazole-8-carboxamide], for which the half-inhibitory concentration (IC50) on PARP-1 lay in the range of 1 to 100 nM. Also, the EC50 in the test on HCC1937 cells fell in the range of 101 to 1000 nM.
On to `CCN1CCC(c2cnn3c2[nH]c2cc(F)cc(C(N)=O)c23)C1` (stereo not drawn) [Example 21, 3-(1-ethylpyrrolidin-3-yl)-6-fluoro-4H-benzo[4,5]imidazo[1,2-b]pyrazole-8-carboxamide], for which the IC50 on PARP-1 lay within 1 to 100 nM. Also, in the test on HCC1937 cells, the EC50 was 1 to 100 nM.
In the case of `COCCCN1CCC(C)(c2cnn3c2[nH]c2cc(F)cc(C(N)=O)c23)CC1` [Example 72, 6-fluoro-3-(1-(3-methoxypropyl)-4-methylpiperidin-4-yl)-4H-benzo[4,5]imidazo[1,2-b]pyrazole-8-carboxamide], at PARP-1, the half-maximal inhibitory concentration (IC50) was 1 to 100 nM. The EC50 with HCC1937 cells fell in the range of 1 to 100 nM.
For `CC1(c2cnn3c2[nH]c2cc(F)cc(C(N)=O)c23)CCN(CC2CCOCC2)CC1` [Example 66, 6-fluoro-3-(4-methyl-1-((tetrahydro-2H-pyran-4-yl)methyl)piperidin-4-yl)-4H-benzo[4,5]imidazo[1,2-b]pyrazole-8-carboxamide], on PARP-1, the IC50 lay in the range of 1 to 100 nM. Also, in the test with HCC1937 cells, the EC50 is 1 to 100 nM.
On to `CCCN1CCCC1c1cnn2c1[nH]c1cc(F)cc(C(N)=O)c12` (stereo not drawn) [Example 24, 6-fluoro-3-(1-propylpyrrolidin-2-yl)-4H-benzo[4,5]imidazo[1,2-b]pyrazole-8-carboxamide], for which the IC50 on PARP-1 lay within 1 to 100 nM. Also, in the test on HCC1937 cells, the EC50 was 101 to 1000 nM.
For `CCN1CC2CC2(c2cnn3c2[nH]c2cc(F)cc(C(N)=O)c23)C1` (stereo not drawn) [Example 29, 3-(3-ethyl-3-azabicyclo[3.1.0]hexan-1-yl)-6-fluoro-4H-benzo[4,5]imidazo[1,2-b]pyrazole-8-carboxamide] the same measures were 1 to 100 nM and 1 to 100 nM.
For `CNCc1ccc(F)c(-c2cnn3c2[nH]c2cc(F)cc(C(N)=O)c23)c1` [Example 44, 6-fluoro-3-(2-fluoro-5-((methylamino)methyl)phenyl)-4H-benzo[4,5]imidazo[1,2-b]pyrazole-8-carboxamide] the same measures were 101 to 1000 nM and 101 to 1000 nM.
For `NC(=O)c1cc(F)cc2[nH]c3c(C4CCCN4)cnn3c12` (stereo not drawn) [Example 23, 6-fluoro-3-(pyrrolidin-2-yl)-4H-benzo[4,5]imidazo[1,2-b]pyrazole-8-carboxamide] the same measures were 1 to 100 nM and 1 to 100 nM.
As for `CN1CCCC(c2cnn3c2[nH]c2cc(F)cc(C(N)=O)c23)CC1` (stereo not drawn) [Example 19, 6-fluoro-3-(1-methylazepan-4-yl)-4H-benzo[4,5]imidazo[1,2-b]pyrazole-8-carboxamide], the IC50 on PARP-1 was 1 to 100 nM. Also, in the test on HCC1937 cells, the EC50 is 1 to 100 nM.
With `CC1(c2cnn3c2[nH]c2cc(F)cc(C(N)=O)c23)CCN(Cc2nccs2)CC1` [Example 74, 6-fluoro-3-(4-methyl-1-(thiazol-2-ylmethyl)piperidin-4-yl)-4H-benzo[4,5]imidazo[1,2-b]pyrazole-8-carboxamide], the IC50 at PARP-1 was 1 to 100 nM. The EC50 in the test with HCC1937 cells is 101 to 1000 nM.

(Values after patent publication US9856262B2, “Analogues of 4H-pyrazolo[1,5-a] benzimidazole compound as PARP inhibitors” (HUBEI BIO-PHARMACEUTICAL INDUSTRIAL TECHNOLOGICAL INSTITUTE …, priority 2014, dated 2018).)
